This is an account of results in paper PMC6326523, “A high-throughput screen to identify novel small molecule inhibitors of the Werner Syndrome Helicase-Nuclease (WRN)” (PLoS ONE, 2019).

The target of experiment [1] is T1, full-length WRN helicase (Homo sapiens, UniProt Q14191).
T1 construct: Full length recombinant WRN [18], BLM [19], and FANCJ [20] proteins were purified from insect cells; made in house; host or cells: insect cells
As to the kind of experiment: Radiometric helicase inhibitor assay, full-length WRN unwinding of FORKR DNA substrate.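 On all read-outs here: WRN preincubated with compound 15 min at room temperature, then unwinding run 15 min at 37 °C with 2 mM ATP, relative to WRN unwinding without compound (100%).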 The format is biochemical. The note with it: FORKR 0.5 nM; for remaining activity at 50 µM: 50 μM compound, read-out: % Control WRN Helicase Activity.
Description: Fifteen μL of reaction buffer was added to a microcentrifuge tube followed by the addition of 1 μL of selected compounds (0.5–100 μM final concentration) or DMSO. One μL of WRN (full length), RECQ1, FANCJ, BLM or control was added to each reaction and incubated at room temperature for 15 min. Three μL of substrate (0.5 nM FORKR and 2 mM ATP final concentrations) were added to all reactions which were incubated at 37°C for 15 min. Reactions were stopped with the addition of 20 μL of 2X STOP dye containing EDTA, glycerol, bromphenol blue and xylene cyanol. Samples were electrophoresed for 1.5 hr at 200 V on a 12% non-denaturing PAGE gel in 1X TBE Buffer.
The compounds were tested at a single concentration of 50 μM in the radiometric helicase assay with full-length recombinant WRN protein (1 nM) and the FORKR DNA substrate (0.5 nM) as described in the Materials and Methods section.
For each compound, we performed titrations over a wide range of concentrations with a fixed concentration of full-length WRN protein (1 nM), and quantitated unwinding as a percentage of full-length WRN unwinding of the FORKR DNA substrate (0.5 nM) in the absence of compound (Fig 6A and 6B, S3 Fig). […] In addition to determining an IC50 value for each compound, we also conducted helicase assays to determine the reversibility of inhibition by each compound tested. […] The reaction was diluted 100-fold with the addition of DNA substrate (0.5 nM final concentration) and ATP (2 mM final concentration) and unwinding was measured (Fig 7A–7D, S4 Fig). Inhibition was either classified as reversible, partially reversible, minimally reversible, or irreversible based on the ability of helicase activity to recover after dilution of the compound 100-fold.

The target in experiment [2] is T1, full-length WRN helicase. As to the kind of experiment: Radiometric helicase inhibitor reversibility assay (100-fold dilution). The format is biochemical. Details: key to Reversibility: (-) = irreversible; (+) = minimally reversible; (++) = partially reversible; (+++) = reversible. The note with it: for Reversibility: WRN 100 nM preincubated at 10-fold IC50, diluted 100-fold, unwinding 0-16 min; for Reversibility of inhibition (in words): full-length WRN. The method, then: WRN (full length, 100 nM concentration) was incubated with each small molecule inhibitor at a concentration 10-fold higher than the IC50 for that inhibitor, in a 10 μL reaction at room temperature. 1.5 μL of this reaction was added to 148.5 μL of reaction salts with 2 mM ATP, 0.5 nM FORKR reducing the full length WRN concentration to 1 nM and the drug concentration to 10-fold less than its IC50. Reactions were placed at 37°C and 20 μL of reaction were removed at specific intervals (0–16 min) and quenched with 20 μL of 2X STOP dye containing EDTA, glycerol, bromphenol blue and xylene cyanol. Samples were electrophoresed for 1.5 hr at 200 V on a 12% non-denaturing PAGE gel in 1X TBE Buffer.
Eighteen compounds were selected based on potency of inhibition in both the screening and radiometric assays, and exclusion of compounds with undesired chemical features. For each compound, we performed titrations over a wide range of concentrations with a fixed concentration of full-length WRN protein (1 nM), and quantitated unwinding as a percentage of full-length WRN unwinding of the FORKR DNA substrate (0.5 nM) in the absence of compound (Fig 6A and 6B, S3 Fig). […] In addition to determining an IC50 value for each compound, we also conducted helicase assays to determine the reversibility of inhibition by each compound tested. Details of the assay can be found in the Materials and Methods section, but briefly 100 nM WRN was incubated with each compound at a concentration 10-fold higher than its IC50 value. The reaction was diluted 100-fold with the addition of DNA substrate (0.5 nM final concentration) and ATP (2 mM final concentration) and unwinding was measured (Fig 7A–7D, S4 Fig). Inhibition was either classified as reversible, partially reversible, minimally reversible, or irreversible based on the ability of helicase activity to recover after dilution of the compound 100-fold. Table 2 summarizes the IC50 values and reversibility for each compound and includes IC50 values obtained from the screens for comparison.

Experiment [3] has as its target T2, full-length WRN exonuclease activity (Homo sapiens, UniProt Q14191).
T2 construct: Full length recombinant WRN [18], BLM [19], and FANCJ [20] proteins were purified from insect cells; made in house; host or cells: insect cells
As to the kind of experiment: WRN exonuclease activity on radiolabeled FORKR DNA substrate. The format is biochemical. The following applies: WRN 20 nM, FORKR 1 nM; for Inhibition of WRN exonuclease activity: same concentration range as activity against WRN helicase. The method, then:
Fig 8 Specificity of selected compounds for inhibiting full-length WRN helicase activity. […] (B) Gel image of full-length WRN (20 nM) exonuclease activity on the radiolabeled FORKR DNA substrate (1 nM) in the presence of increasing concentrations of NCGC00029283-03, NCGC00063279-03 and NCGC00357377-01 (0–200 μM).
Three compounds identified from the cherry-picked set were tested for their effects on WRN exonuclease activity (20 nM) on the FORKR DNA substrate (1 nM) as well as DNA unwinding by full-length BLM (0.1 nM) and FANCJ (5 nM) helicases, which belong to the same Superfamily 2 as WRN [25], to assess their specificity for inhibition of WRN-catalyzed unwinding of the FORKR DNA substrate (0.5 nM). […] Nonetheless, these two compounds were also further tested in cell-based assays to assess their effects on proliferation.

Experiment [4] deals with U2-OS cells. Description: U2-OS cell proliferation assay (WST-1). The format is cell-based, human. The note with it: 100 μM; for Effect on proliferation of U2-OS cells: Day 0 through Day 3. The method, then:
WRN inhibitors were diluted in DMSO to a concentration 100-fold higher than their final concentrations. U2-OS cells in culture were counted, spun down and resuspended to 35,000 cells/mL in DMEM with 10% FBS and Pen/Strep antibiotic. For each cell condition, 15 μL of DMSO or inhibitor was added to 1.5 ml of U2-OS cells in DMEM or DMEM alone. One hundred μL of each cell condition was plated in triplicate on each of four 96-well plates representing days 0–3. Ten μL of WST-1 cell proliferation reagent (Roche) was added to the day 0 plate and readings were taken 2 hr later using a plate reader set to 450 nm. WST-1 cell proliferation reagent was added to plates on days 1–3 and readings were taken after 2 hr incubation. Percent cell proliferation was normalized to cells in the presence of DMSO with the background OD450 of DMEM with each drug subtracted out.
Fig 9 Effects of WRN helicase inhibitors on cancer cell proliferation. (A) Cell proliferation of HeLa 1.2.11 cells treated with 50 μM NCGC00029283-03, NCGC00063279-03, NCGC00357377-01 and NSC 617145 (positive control) or vehicle (DMSO) on Day 0 and Day 3 as measured using the WST-1 cell proliferation reagent. (B) Cell proliferation of U2-OS cells treated with increasing amounts of NCGC00029283-03 (0–100 μM) from Day 0 through Day 3. (C) Cell proliferation of U2-OS cells treated with increasing amounts of NCGC00063279-03 (0–100 μM) from Day 0 through Day 3. (D) Cell proliferation of U2-OS cells treated with 100 μM NCGC00357377-01 from Day 0 through Day 3.
HeLa cells are characterized by reduced expression of wild-type p53 as well as an inability to increase p53 levels after DNA damage due to human papillomavirus (HPV) elements. This raised the possibility that p53 status may play a role in the ability of small molecule WRN helicase inhibitors to affect cell proliferation. In addition, HeLa 1.2.11 cells are characterized by relatively long telomeres and use telomerase to maintain telomere length. Since WRN is implicated in the Alternative Lengthening of Telomeres (ALT) pathway, cells that are dependent on the ALT pathway may be more sensitive to WRN inhibitors as well. To address this possibility, we treated U2-OS osteosarcoma cells (which express wild-type p53 and utilize the ALT pathway for keeping very long telomeres) with all three compounds. In this case, we observed a 50% reduction in U2-OS cell proliferation two days after initial exposure to NCGC00029283-03 (100 μM).

The mark [5] stands for this setting: radiometric assay, full-length WRN 1 nM, compound 0-100 μM, read-out: IC50.
Where [6] appears, read: resynthesized or repurified compounds, full-length WRN, read-out: IC50 (μM): WRN.

Where two headings read alike, the source gives them in different places.

T1 sequence (Q14191 whole entry): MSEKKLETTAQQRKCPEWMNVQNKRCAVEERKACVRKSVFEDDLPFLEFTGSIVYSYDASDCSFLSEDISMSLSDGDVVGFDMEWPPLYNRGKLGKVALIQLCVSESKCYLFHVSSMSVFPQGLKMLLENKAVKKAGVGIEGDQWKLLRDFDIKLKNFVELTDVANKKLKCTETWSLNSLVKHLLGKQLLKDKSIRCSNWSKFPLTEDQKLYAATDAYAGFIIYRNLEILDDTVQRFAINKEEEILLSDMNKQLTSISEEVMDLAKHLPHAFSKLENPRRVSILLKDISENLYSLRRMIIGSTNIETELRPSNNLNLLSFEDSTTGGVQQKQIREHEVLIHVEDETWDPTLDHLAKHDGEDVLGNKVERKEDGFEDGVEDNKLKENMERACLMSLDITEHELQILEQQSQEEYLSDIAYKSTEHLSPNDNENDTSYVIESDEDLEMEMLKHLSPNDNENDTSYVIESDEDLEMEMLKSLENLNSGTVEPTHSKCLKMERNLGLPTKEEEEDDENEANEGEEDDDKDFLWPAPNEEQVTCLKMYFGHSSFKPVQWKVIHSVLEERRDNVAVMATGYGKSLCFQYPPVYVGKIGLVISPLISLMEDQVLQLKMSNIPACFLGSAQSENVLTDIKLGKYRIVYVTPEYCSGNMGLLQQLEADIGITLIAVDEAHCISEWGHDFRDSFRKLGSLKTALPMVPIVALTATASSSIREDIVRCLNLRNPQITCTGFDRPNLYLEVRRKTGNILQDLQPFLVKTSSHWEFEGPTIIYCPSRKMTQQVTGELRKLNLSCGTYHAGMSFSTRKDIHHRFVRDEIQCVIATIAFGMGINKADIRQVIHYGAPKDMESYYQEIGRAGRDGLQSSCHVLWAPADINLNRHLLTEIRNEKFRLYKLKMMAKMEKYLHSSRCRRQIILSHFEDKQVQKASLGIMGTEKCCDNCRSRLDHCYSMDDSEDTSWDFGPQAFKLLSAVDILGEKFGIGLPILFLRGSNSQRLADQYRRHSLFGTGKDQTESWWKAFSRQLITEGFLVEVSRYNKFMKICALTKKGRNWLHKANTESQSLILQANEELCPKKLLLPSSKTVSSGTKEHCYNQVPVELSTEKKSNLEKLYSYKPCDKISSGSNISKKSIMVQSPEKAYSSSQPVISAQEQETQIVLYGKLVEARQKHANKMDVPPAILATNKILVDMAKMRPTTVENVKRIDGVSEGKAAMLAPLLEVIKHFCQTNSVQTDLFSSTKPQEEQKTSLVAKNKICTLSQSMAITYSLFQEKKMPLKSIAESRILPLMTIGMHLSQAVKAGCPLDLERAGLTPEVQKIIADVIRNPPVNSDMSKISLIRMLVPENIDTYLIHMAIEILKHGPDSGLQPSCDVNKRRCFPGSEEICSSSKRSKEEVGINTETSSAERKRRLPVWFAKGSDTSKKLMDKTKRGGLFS
T2 sequence (Q14191 whole entry): as above

In general, IC50 refers to the concentration at which inhibition is half-maximal. As for `Cc1ccc(-c2csc(NS(=O)(=O)c3cccc(F)c3)n2)o1` [MLS002251300-02], the remaining activity at 50 µM in experiment [1] (full-length WRN 1 nM) came to 1%. The 50% inhibitory concentration (IC50) in experiment [1] (setting [5]) came to 4 µM; in experiment [1] (setting [6]), 5 ± 1.4 µM. Also, in experiment [2], the Reversibility result is on record as “++”. The “Inhibition of WRN exonuclease activity at 200 μM” value (“Inhibition … at 200 μM” below) in experiment [3] is “some ability to inhibit”. Further, the “Inhibition of WRN exonuclease activity” value in experiment [3] is “unable to inhibit”. Further, the “Effect on proliferation of U2-OS cells” value in experiment [4] (listed as NCGC00357377) is on record as “did not reduce cell proliferation”; in experiment [4] (listed as NCGC00357377-01) it was “did not have any effect”.

`COc1ccc2nc(O)c(-c3noc(-c4ccccc4)n3)cc2c1` [NCGC00063279-02]: in experiment [1] (full-length WRN 1 nM), the remaining activity at 50 µM worked out at 18%. Further, in experiment [1] (setting [5]), the half-maximal inhibitory concentration (IC50) amounted to 12 µM. Further, the IC50 in experiment [1] (setting [6]) turned out to be 13 ± 3.6 µM. In experiment [2], the Reversibility result is “+++” and the “Reversibility of inhibition (in words)” value is recorded as “at least partially reversible”. In experiment [3], the “Inhibition … at 200 μM” value was “some ability to inhibit” and the “Inhibition of WRN exonuclease activity” value is reported as “unable to inhibit”. In addition, the “Reduction in U2-OS cell proliferation” value in experiment [4] (after three days exposure) is reported as 40%.

For `COc1ccc2nc(O)c(-c3noc(-c4ccc(F)cc4)n3)cc2c1` [NCGC00029283-02], the remaining activity at 50 µM in experiment [1] (full-length WRN 1 nM) was found to be 6%. The IC50 in experiment [1] (setting [5]) was found to be 3 µM. Also, the IC50 in experiment [1] (setting [6]) is 2.3 ± 0.6 µM. In experiment [2], the Reversibility result is listed as “++” and the “Reversibility of inhibition (in words)” value was “at least partially reversible”. Further, in experiment [3], the “Inhibition … at 200 μM” value is “some ability to inhibit” and the “Inhibition of WRN exonuclease activity” value was “unable to inhibit”. Besides, in experiment [4], the “Effect on proliferation of U2-OS cells” value was “also detectable after three days”. For the same molecule, the “Reduction in U2-OS cell proliferation” value in experiment [4] (two days after initial exposure) came to 50%.
